Data reported in patent US7179926B2, “Aryloxyalkylamine NK-1/SSRI inhibitors” (Bristol-Myers Squibb Company, priority 2004, dated 2007).

Assays:
[1] = biological target: T1, neurokinin-1 (NK-1) receptor (Homo sapiens, UniProt P25103); test: NK-1 Binding assay ([125I] Substance P competition, U373 cell membranes); conditions: Bolton Hunter labeled [125I] Substance P, 30 min at 20° C.
T1 construct: endogenously expresses the neurokinin-1 (NK-1) receptor; endogenous in cells; host or cells: U373 human glioblastoma-astrocytoma cells (membranes)
T1 sequence (P25103 whole entry): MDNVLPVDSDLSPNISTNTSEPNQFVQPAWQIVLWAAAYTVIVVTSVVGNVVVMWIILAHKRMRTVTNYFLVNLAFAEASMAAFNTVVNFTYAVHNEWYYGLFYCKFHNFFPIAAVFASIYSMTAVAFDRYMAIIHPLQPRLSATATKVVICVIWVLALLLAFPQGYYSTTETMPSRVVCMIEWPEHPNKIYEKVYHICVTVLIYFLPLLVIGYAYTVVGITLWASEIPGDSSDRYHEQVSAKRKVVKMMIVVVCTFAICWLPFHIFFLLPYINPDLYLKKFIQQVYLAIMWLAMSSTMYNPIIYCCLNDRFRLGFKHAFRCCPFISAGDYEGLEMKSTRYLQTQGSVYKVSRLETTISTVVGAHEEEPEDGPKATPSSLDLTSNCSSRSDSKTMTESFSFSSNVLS
Experimental: NK-1 Binding assay. U373 cells, a human glioblastoma-astrocytoma cell line that endogenously expresses the neurokinin-1 (NK-1) receptor, were grown in a monolayer culture at 37° C. in 5% CO2 and fed with Minimum Essential Medium (MEM) supplemented with 10% fetal bovine serum. Membranes were prepared as follows: Cells were washed twice with ice-cold phosphate-buffered saline (pH 7.4) and then incubated for 5–10 minutes with ice-cold 10 mM Tris buffer (pH 7.4) containing 5 mM EDTA. Cells were removed from plates, homogenized, and centrifuged at 32,000×g for 20 minutes. The resulting supernatant was discarded, and the pellet resuspended by homogenization in 50 mM Tris buffer (pH 7.4) containing 1 mM EDTA and centrifuged at 32,000×g for 20 minutes. The resulting supernatant was discarded, and the pellet resuspended by homogenization in NK-1 binding assay buffer (50 mM Tris-HCL (pH 7.4), 3 mM MnCl2, 200 μg/ml BSA, 5 μg/ml chymostatin, 40 μg/ml bacitracin and 4 μg/ml leupeptin).
On the day of an experiment the membrane preparation was thawed, homogenized and diluted with NK-1 binding assay buffer to the appropriate concentration. Competition binding assays were performed in 96 well plate format by incubating membranes (5–10 μg/well) with Bolton Hunter labeled [^125I] Substance P, at a concentration of […], and concentrations of drugs ranging from 10000 to 0.01 nM. Samples were incubated for 30 min at 20° C. then filtered through GF/B glass fiber filters (pretreated with 1% polyethyleneimine and 0.3% Triton X-100) using a Brandel cell harvester. The filters were then washed with 10 ml ice cold 50 mM Tris-HCL (pH 7.4) containing 3 mM MgCl2. Non-specific was defined in the presence of 2 μM L-733,060 (a non-peptide NK-1 antagonist). The amount of radioligand bound in the presence and absence of competitor was analyzed by plotting (−)log drug concentration versus the amount of radioligand specifically bound. The midpoint of the displacement curve (IC50, nM), signifies the potency. Ki values can be calculated using the method of Cheng and Prusoff (Cheng and Prusoff, Biochemical Pharmacology, Vol 22, pp. 3099–3108, Pergamon Press (1973)).

[2] = biological target: T2, human serotonin transporters (Homo sapiens, UniProt P31645); test: Serotonin transporter binding assay ([3H]-citalopram competition, HEK-hSERT cell membranes); conditions: 1 nM [3H]-citalopram, 1 hr at 25° C., read-out: SERT IC50
T2 construct: expressed in transfected cells
T2 sequence (P31645 whole entry): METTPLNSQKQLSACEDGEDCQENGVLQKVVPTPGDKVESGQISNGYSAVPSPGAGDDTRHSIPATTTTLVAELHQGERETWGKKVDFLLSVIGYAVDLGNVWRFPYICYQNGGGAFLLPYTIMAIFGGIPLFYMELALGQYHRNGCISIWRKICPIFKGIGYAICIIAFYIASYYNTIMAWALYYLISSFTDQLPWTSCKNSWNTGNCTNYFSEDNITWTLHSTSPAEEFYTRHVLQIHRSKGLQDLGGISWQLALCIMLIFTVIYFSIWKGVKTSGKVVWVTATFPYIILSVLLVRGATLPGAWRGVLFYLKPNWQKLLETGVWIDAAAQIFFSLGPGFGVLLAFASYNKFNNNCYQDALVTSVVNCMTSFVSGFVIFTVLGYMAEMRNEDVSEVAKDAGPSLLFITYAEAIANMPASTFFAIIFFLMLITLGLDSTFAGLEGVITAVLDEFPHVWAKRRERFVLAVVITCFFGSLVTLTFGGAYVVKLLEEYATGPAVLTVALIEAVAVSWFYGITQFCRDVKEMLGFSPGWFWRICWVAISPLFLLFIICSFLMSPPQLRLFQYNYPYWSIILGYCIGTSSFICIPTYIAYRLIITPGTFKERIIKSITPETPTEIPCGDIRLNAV
Experimental: Serotonin transporter binding assay. HEK-293 cells that stably express human serotonin transporters (HEK-hSERT cells) were grown at 37° C. in 5% CO2 as a monolayer in medium consisting of EMEM supplemented with 10% fetal bovine serum and G418 sulfate (500 μg/ml). To prepare membranes for radioligand binding experiments, cells were rinsed twice with phosphate-buffered saline (138 mM NaCl, 4.1 mM KCl, 5.1 mM Na2PO4, 1.5 mM KH2PO4, 11.1 mM glucose, pH 7.4). Cells were transferred from plates to polypropylene tubes (16×100 mm), centrifuged at 1,200×g for 5 min and were frozen at −80° C. until assay. Following centrifugation, pellets were resuspended by homogenization in buffer consisting of 50 mM Tris (pH 7.7 at 25° C.), 120 mM NaCl and 5 mM KCl and then centrifuged at 32,000×g for 10 min. Following centrifugation, supernatants were discarded and pellets were resuspended in buffer consisting of 50 mM Tris (pH 7.4 at 25° C.), 150 mM NaCl and 5 mM KCl. Membrane homogenates (200 μl/plate) were incubated with 1 nM [^3H]-citalopram (specific activity=85 Ci/mmol) and increasing concentrations of test compounds for 1 hr at 25° C. in a total volume of 250 μl. The assay buffer consisted of 50 mM Tris (pH 7.4 at 25° C.), 120 mM NaCl and 5 mM KCl (pH 7.4 with conc. HCl). Plates were incubated for 1 hr at 25° C., then filtered through 0.5% PEI treated Whatman GF/B filters using a Brandel cell harvester. Filters were washed three times with 3 ml of ice-cold tris wash buffer. Non-specific binding was defined with 10 μM fluoxetine. Amount of radioligand bound in the presence and absence of competitor was analyzed by plotting (−)log drug concentration versus the amount of radioligand specifically bound. The midpoint of the displacement curve (IC50, nM), signifies the potency. Ki values can be calculated using the method of Cheng and Prusoff (Cheng and Prusoff, Biochemical Pharmacology, Vol 22, pp. 3099–3108, Pergamon Press (1973)).

| SMILES | IC50 [1] [nM] | IC50 [2] [nM] |
| --- | --- | --- |
| CNCCC(C)(COCc1cc(C(F)(F)F)cc(C(F)(F)F)c1)c1ccccc1 (centres unmarked) [Example 75, 1-(3,5-bis(trifluoromethyl)benzyloxy)-4-methylamino-2-methyl-2-phenylbutane] | 1 to 100 | 100 to 300 |
| NCCC(O)(COCc1cc(C(F)(F)F)cc(C(F)(F)F)c1)c1cccc2ccccc12 (centres unmarked) [Example 34, 1-(3,5-bis(trifluoromethyl)benzyloxy)-4-amino-2-(naphthalen-1-yl)butan-2-ol] | 1 to 100 | 1 to 100 |
| Cc1cc(C)cc(COCC(O)(CCN)c2ccccc2)c1 (centres unmarked) [Example 53, 1-(3,5-dimethylbenzyloxy)-4-amino-2-phenylbutan-2-ol] | 1 to 100 | 1 to 100 |
| COc1ccc(C(O)(CCN)COCc2cc(C(F)(F)F)cc(C(F)(F)F)c2)c(OC)c1 (centres unmarked) [Example 46, 1-(3,5-bis(trifluoromethyl)benzyloxy)-4-amino-2-(2,4-dimethoxyphenyl)butan-2-ol] | > 300 | 1 to 100 |
| COc1ccc(F)cc1C(O)(CCN)COCc1cc(C(F)(F)F)cc(C(F)(F)F)c1 (centres unmarked) [Example 25, 1-(3,5-bis(trifluoromethyl)benzyloxy)-4-amino-2-(5-fluoro-2-methoxyphenyl)butan-2-ol] | 1 to 100 | 100 to 300 |
| NCCC(O)(COCc1cccc(OC(F)(F)F)c1)c1ccccc1 (centres unmarked) [Example 69, 1-(3-(trifluoromethoxy)benzyloxy)-4-amino-2-phenylbutan-2-ol] | > 300 | 1 to 100 |
| COc1ccc(OC)c(C(O)(CCN)COCc2cc(C(F)(F)F)cc(C(F)(F)F)c2)c1 (centres unmarked) [Example 27, 1-(3,5-bis(trifluoromethyl)benzyloxy)-4-amino-2-(2,5-dimethoxyphenyl)butan-2-ol] | 100 to 300 | 1 to 100 |
| CC(CCN)(COCc1cc(C(F)(F)F)cc(C(F)(F)F)c1)c1ccccc1 (centres unmarked) [Example 74, 1-(3,5-bis(trifluoromethyl)benzyloxy)-4-amino-2-methyl-2-phenylbutane] | 1 to 100 | 1 to 100 |
| NCCC(O)(COCc1cc(F)cc(C(F)(F)F)c1)c1ccccc1 (centres unmarked) [Example 51, 1-(3-fluoro-5-(trifluoromethyl)benzyloxy)-4-amino-2-phenylbutan-2-ol] | 1 to 100 | 1 to 100 |
| NCCC(O)(COCc1ccc(F)cc1)c1ccccc1 (centres unmarked) [Example 59, 1-(4-fluorobenzyloxy)-4-amino-2-phenylbutan-2-ol] | > 300 | 100 to 300 |
| CNCC(O)(COCc1cc(C(F)(F)F)cc(C(F)(F)F)c1)c1ccccc1 (centres unmarked) [Example 3, 1-(3,5-bis(trifluoromethyl)benzyloxy)-3-(methylamino)-2-phenylpropan-2-ol] | 1 to 100 | 100 to 300 |
| Cc1cccc(COCC(O)(CCN)c2ccccc2)c1 (centres unmarked) [Example 60, 1-(3-methylbenzyloxy)-4-amino-2-phenylbutan-2-ol] | > 300 | 1 to 100 |
| Cc1ccc(C(O)(CCN)COCc2cc(C(F)(F)F)cc(C(F)(F)F)c2)c2ccccc12 (centres unmarked) [Example 22, 1-(3,5-bis(trifluoromethyl)benzyloxy)-4-amino-2-(4-methylnaphthalen-1-yl)butan-2-ol] | 100 to 300 | 1 to 100 |
| COc1ccccc1COCC(O)(CCN)c1ccccc1 (centres unmarked) [Example 62, 1-(2-methoxybenzyloxy)-4-amino-2-phenylbutan-2-ol] | > 300 | 1 to 100 |
| NCCC(COCc1cc(C(F)(F)F)cc(C(F)(F)F)c1)c1ccccc1 (centres unmarked) [Example 71, 1-(3,5-bis(trifluoromethyl)benzyloxy)-4-amino-2-phenylbutane] | 1 to 100 | 100 to 300 |
| NCCC(O)(CSCc1cc(C(F)(F)F)cc(C(F)(F)F)c1)c1ccccc1 (centres unmarked) [Example 80, 1-(3,5-bis(trifluoromethyl)benzylthio)-4-amino-2-phenylbutane-2-ol] | 100 to 300 | 1 to 100 |
| CNCC(C)(COCc1cc(C(F)(F)F)cc(C(F)(F)F)c1)c1ccccc1 (centres unmarked) [Example 78, 1-(3,5-bis(trifluoromethyl)benzyloxy)-3-methylamino-2-methyl-2-phenylpropane] | 100 to 300 | 100 to 300 |

Results, then the compound that gave them:

| IC50 [1] [nM] | IC50 [2] [nM] | SMILES |
| --- | --- | --- |
| 1 to 100 | 100 to 300 | NCCC(O)(COCc1cc(C(F)(F)F)cc(C(F)(F)F)c1)c1cc(F)cc(F)c1 (centres unmarked) [Example 19, 1-(3,5-bis(trifluoromethyl)benzyloxy)-4-amino-2-(3,5-difluorophenyl)butan-2-ol] |
| 1 to 100 | 1 to 100 | Cc1c(F)cccc1C(O)(CCN)COCc1cc(C(F)(F)F)cc(C(F)(F)F)c1 (centres unmarked) [Example 36, 1-(3,5-bis(trifluoromethyl)benzyloxy)-4-amino-2-(3-fluoro-2-methylphenyl)butan-2-ol] |
| 1 to 100 | 1 to 100 | CNCCC(O)(COCc1cc(C(F)(F)F)cc(C(F)(F)F)c1)c1ccccc1 (centres unmarked) [Example 6, 1-(3,5-bis(trifluoromethyl)benzyloxy)-4-(methylamino)-2-phenylbutan-2-ol] |
| 1 to 100 | 1 to 100 | NCC(O)(COCc1cc(C(F)(F)F)cc(C(F)(F)F)c1)c1ccccc1 (centres unmarked) [Example 2, 1-(3,5-bis(trifluoromethyl)benzyloxy)-3-amino-2-phenylpropan-2-ol] |
| 1 to 100 | 1 to 100 | Cc1cc(C)cc(C(O)(CCN)COCc2cc(C(F)(F)F)cc(C(F)(F)F)c2)c1 (centres unmarked) [Example 18, 1-(3,5-bis(trifluoromethyl)benzyloxy)-4-amino-2-(3,5-dimethylphenyl)butan-2-ol] |
| 1 to 100 | 1 to 100 | Cc1ccc(F)cc1C(O)(CCN)COCc1cc(C(F)(F)F)cc(C(F)(F)F)c1 (centres unmarked) [Example 29, 1-(3,5-bis(trifluoromethyl)benzyloxy)-4-amino-2-(5-fluoro-2-methylphenyl)butan-2-ol] |
| 1 to 100 | 1 to 100 | COc1ccccc1C(O)(CCN)COCc1cc(C(F)(F)F)cc(C(F)(F)F)c1 (centres unmarked) [Example 45, 1-(3,5-bis(trifluoromethyl)benzyloxy)-4-amino-2-(2-methoxyphenyl)butan-2-ol] |
| 100 to 300 | 1 to 100 | COc1ccc(C(O)(CCN)COCc2cc(C(F)(F)F)cc(C(F)(F)F)c2)cc1 (centres unmarked) [Example 20, 1-(3,5-bis(trifluoromethyl)benzyloxy)-4-amino-2-(4-methoxyphenyl)butan-2-ol] |
| 1 to 100 | 1 to 100 | NCCC(O)(COCc1cc(C(F)(F)F)cc(C(F)(F)F)c1)c1ccccc1 (centres unmarked) [Example 4, 1-(3,5-bis(trifluoromethyl)benzyloxy)-4-amino-2-phenylbutan-2-ol] |
| 1 to 100 | 1 to 100 | Cc1cccc(C(O)(CCN)COCc2cc(C(F)(F)F)cc(C(F)(F)F)c2)c1 (centres unmarked) [Example 17, 1-(3,5-bis(trifluoromethyl)benzyloxy)-4-amino-2-m-tolylbutan-2-ol] |
| 100 to 300 | 1 to 100 | COc1ccc(C(O)(CCN)COCc2cc(C(F)(F)F)cc(C(F)(F)F)c2)c(C)c1 (centres unmarked) [Example 28, 1-(3,5-bis(trifluoromethyl)benzyloxy)-4-amino-2-(4-methoxy-2-methylphenyl)butan-2-ol] |
